Key:
Assay in all cases: radiometric filter-binding kinase assay, Kinase HotSpot
Settings in all cases: compound 0.5 µM; ATP 10 µM
ADRBK2 (human) = ADRBK2 (human) (UniProt P35626)
CAMK2A (human) = CAMK2A (human) (UniProt Q9UQM7)
CAMK2G (human) = CAMK2G (human) (UniProt Q13555)
CAMK4 (human) = CAMK4 (human) (UniProt Q16566)
CDC42BPB (human) = CDC42BPB (human) (UniProt Q9Y5S2)
CSNK1G2 (human) = CSNK1G2 (human) (UniProt P78368)
DYRK3 (human) = DYRK3 (human) (UniProt O43781)
EPHA2 (human) = EPHA2 (human) (UniProt P29317)
EPHA3 (human) = EPHA3 (human) (UniProt P29320)
EPHA8 (human) = EPHA8 (human) (UniProt P29322)
FGFR1 (human) = FGFR1 (human) (UniProt P11362)
FYN (human) = FYN (human) (UniProt P06241)
HCK (human) = HCK (human) (UniProt P08631)
Sequence of HCK (human) (P08631 whole entry, looked up): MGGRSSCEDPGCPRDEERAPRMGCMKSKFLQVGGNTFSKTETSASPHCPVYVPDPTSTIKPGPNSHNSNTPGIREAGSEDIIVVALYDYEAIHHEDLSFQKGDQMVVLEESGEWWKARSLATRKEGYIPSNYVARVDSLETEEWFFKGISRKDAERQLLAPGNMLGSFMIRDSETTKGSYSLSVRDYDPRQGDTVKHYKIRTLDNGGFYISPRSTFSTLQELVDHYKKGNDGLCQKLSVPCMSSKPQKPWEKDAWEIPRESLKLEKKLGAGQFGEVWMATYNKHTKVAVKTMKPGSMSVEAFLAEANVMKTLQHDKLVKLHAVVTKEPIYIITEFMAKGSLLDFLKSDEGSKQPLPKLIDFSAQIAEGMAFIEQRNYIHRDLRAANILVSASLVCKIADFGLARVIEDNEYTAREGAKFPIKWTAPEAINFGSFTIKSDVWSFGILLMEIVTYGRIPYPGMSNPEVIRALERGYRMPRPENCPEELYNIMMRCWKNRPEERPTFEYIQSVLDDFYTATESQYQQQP

IKBKE (human) = IKBKE (human) (UniProt Q14164)
INSR (human) = INSR (human) (UniProt P06213)
Sequence of INSR (human) (P06213 whole entry, looked up): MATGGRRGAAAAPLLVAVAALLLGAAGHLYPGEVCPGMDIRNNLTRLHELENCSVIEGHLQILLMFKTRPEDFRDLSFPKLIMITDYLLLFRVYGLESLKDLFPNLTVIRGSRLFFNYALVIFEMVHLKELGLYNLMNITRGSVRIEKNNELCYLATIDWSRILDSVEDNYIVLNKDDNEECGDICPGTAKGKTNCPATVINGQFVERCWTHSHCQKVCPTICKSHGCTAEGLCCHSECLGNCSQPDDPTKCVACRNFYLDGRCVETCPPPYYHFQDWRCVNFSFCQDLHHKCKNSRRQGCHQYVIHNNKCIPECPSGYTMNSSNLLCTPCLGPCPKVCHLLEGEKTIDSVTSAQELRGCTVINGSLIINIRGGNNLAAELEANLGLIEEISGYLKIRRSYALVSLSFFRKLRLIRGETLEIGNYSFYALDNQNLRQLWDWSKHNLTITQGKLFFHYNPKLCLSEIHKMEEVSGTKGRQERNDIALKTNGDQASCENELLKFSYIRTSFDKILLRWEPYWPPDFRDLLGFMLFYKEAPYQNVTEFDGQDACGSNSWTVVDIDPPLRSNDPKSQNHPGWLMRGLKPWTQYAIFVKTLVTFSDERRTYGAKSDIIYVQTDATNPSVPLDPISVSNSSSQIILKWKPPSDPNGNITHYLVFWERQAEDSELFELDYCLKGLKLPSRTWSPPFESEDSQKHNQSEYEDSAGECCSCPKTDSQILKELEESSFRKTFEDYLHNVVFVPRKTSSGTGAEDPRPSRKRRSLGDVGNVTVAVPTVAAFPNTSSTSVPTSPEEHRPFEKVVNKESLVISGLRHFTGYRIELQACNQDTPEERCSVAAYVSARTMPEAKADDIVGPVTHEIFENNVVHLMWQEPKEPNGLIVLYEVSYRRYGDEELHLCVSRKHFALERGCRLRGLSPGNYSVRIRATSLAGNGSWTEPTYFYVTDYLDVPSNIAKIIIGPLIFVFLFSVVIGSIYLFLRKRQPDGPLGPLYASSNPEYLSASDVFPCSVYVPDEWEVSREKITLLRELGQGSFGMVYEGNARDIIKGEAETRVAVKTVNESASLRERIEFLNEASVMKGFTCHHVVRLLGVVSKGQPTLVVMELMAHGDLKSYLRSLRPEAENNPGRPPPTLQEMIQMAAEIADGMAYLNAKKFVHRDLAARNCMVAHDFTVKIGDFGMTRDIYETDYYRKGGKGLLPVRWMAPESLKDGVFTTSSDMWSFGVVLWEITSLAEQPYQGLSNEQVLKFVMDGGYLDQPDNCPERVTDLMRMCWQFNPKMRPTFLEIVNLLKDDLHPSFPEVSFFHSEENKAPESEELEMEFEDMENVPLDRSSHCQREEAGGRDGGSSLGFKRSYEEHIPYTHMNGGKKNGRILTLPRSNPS

MAP4K5 (human) = MAP4K5 (human) (UniProt Q9Y4K4)
MAPK9 (human) = MAPK9 (human) (UniProt P45984)
MATK (human) = MATK (human) (UniProt P42679)
MET (human) = MET (human) (UniProt P08581)
MST4 (human) = MST4 (human) (UniProt Q9P289)
MUSK (human) = MUSK (human) (UniProt O15146)
NEK1 (human) = NEK1 (human) (UniProt Q96PY6)
NEK6 (human) = NEK6 (human) (UniProt Q9HC98)
Sequence of NEK6 (human) (Q9HC98 whole entry, looked up): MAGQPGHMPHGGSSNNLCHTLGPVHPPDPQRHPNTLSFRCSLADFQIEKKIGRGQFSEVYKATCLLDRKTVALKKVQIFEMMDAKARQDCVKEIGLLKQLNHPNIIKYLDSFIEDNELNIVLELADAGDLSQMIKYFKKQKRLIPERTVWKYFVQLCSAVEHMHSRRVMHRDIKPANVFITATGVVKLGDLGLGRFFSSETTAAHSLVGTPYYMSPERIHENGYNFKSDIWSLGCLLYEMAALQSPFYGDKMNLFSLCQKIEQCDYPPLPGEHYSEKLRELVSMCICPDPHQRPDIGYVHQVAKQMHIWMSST

NEK7 (human) = NEK7 (human) (UniProt Q8TDX7)
Sequence of NEK7 (human) (Q8TDX7 whole entry, looked up): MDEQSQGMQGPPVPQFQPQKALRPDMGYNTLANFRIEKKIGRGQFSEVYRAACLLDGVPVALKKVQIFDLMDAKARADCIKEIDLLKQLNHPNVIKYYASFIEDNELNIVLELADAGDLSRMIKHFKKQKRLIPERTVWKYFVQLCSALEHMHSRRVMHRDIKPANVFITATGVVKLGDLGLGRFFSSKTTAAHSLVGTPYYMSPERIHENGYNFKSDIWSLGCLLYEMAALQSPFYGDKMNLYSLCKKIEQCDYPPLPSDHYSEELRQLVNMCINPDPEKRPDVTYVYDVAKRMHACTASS

NTRK3 (human) = NTRK3 (human) (UniProt Q16288)
NUAK2 (human) = NUAK2 (human) (UniProt Q9H093)
OXSR1 (human) = OXSR1 (human) (UniProt O95747)
PAK2 (human) = PAK2 (human) (UniProt Q13177)
PIM1 (human) = PIM1 (human) (UniProt P11309)
PRKCB1 (human) = PRKCB1 (human) (UniProt P05771)
PRKG2 (human) = PRKG2 (human) (UniProt Q13237)
Sequence of PRKG2 (human) (Q13237 whole entry, looked up): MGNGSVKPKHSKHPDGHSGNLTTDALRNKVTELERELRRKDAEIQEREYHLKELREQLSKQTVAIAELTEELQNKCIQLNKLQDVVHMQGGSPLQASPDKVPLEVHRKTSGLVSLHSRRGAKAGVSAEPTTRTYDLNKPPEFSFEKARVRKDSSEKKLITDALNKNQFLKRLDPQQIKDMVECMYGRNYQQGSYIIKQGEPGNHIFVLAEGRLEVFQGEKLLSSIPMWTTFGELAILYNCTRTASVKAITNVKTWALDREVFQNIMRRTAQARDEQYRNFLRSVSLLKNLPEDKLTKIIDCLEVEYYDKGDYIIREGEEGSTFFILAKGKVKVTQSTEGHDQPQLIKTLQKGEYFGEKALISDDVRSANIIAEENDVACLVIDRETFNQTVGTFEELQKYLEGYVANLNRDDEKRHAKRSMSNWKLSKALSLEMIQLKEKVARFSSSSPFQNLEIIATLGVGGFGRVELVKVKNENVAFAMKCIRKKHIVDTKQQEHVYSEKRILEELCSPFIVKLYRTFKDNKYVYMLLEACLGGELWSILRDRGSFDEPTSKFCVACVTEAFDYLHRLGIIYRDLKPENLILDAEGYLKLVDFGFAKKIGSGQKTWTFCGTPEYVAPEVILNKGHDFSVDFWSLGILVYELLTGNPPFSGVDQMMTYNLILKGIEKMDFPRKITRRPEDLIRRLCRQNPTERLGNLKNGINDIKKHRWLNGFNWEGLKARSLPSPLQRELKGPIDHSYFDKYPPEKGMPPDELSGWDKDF

PRKX (human) = PRKX (human) (UniProt P51817)
PTK2 (human) = PTK2 (human) (UniProt Q05397)
PTK6 (human) = PTK6 (human) (UniProt Q13882)
RIPK2 (human) = RIPK2 (human) (UniProt O43353)
Sequence of RIPK2 (human) (O43353 whole entry, looked up): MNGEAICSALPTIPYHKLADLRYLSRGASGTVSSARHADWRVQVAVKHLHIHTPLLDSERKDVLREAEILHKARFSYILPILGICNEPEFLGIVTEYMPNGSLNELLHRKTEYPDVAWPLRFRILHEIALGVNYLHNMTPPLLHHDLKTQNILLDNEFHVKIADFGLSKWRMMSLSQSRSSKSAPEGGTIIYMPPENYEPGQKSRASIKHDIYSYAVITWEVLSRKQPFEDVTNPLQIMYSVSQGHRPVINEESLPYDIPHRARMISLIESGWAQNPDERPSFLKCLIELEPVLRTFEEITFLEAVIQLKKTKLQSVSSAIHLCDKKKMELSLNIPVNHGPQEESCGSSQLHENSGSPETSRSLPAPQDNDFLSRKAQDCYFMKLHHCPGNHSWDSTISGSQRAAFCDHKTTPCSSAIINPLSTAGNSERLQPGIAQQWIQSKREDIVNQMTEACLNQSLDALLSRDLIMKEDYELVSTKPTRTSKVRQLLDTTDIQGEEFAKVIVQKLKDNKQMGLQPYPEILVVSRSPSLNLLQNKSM

RPS6KA6 KD1 KD2 (human) = RPS6KA6 KD1 KD2 (human) (UniProt Q9UK32)
SLK (human) = SLK (human) (UniProt Q9H2G2)
SRPK3 (human) = SRPK3 (human) (UniProt Q9UPE1)
Sequence of SRPK3 (human) (Q9UPE1 whole entry, looked up): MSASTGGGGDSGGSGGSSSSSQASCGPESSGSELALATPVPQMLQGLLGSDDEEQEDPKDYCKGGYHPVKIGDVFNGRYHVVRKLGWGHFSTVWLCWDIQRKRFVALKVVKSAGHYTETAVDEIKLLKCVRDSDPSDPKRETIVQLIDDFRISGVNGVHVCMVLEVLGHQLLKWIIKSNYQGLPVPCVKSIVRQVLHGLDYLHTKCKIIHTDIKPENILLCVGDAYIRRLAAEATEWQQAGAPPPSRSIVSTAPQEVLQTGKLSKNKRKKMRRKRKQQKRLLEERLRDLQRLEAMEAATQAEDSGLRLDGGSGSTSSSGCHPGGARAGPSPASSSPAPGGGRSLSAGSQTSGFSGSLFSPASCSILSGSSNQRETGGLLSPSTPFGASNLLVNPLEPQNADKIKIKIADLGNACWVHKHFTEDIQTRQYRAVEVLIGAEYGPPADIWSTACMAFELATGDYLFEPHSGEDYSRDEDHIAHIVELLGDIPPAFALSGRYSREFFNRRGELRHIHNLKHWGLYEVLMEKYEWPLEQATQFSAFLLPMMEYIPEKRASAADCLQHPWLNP

STK24 (human) = STK24 (human) (UniProt Q9Y6E0)
TGFBR2 (human) = TGFBR2 (human) (UniProt P37173)
Sequence of TGFBR2 (human) (P37173 whole entry, looked up): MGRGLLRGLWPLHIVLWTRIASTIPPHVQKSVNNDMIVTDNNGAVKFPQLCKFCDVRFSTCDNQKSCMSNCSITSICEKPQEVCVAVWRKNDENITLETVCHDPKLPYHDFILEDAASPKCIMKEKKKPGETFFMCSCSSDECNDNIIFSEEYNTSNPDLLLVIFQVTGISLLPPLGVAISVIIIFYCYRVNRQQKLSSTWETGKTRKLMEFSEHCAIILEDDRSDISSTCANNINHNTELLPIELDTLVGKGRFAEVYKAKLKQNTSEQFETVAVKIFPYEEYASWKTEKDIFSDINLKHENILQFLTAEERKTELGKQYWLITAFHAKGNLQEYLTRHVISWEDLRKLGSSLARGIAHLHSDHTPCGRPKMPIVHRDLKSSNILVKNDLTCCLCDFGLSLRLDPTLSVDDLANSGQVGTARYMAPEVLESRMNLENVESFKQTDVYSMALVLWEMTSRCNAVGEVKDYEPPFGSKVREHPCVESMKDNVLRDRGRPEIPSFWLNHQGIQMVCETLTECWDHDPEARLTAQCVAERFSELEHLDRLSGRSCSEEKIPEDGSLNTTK

TTK (human) = TTK (human) (UniProt P33981)
MARK1 (human) = MARK1 (human) (UniProt Q9P0L2)

COc1cc2ncnc(Nc3cccc(Cl)c3)c2cc1OC
residual activity (ADRBK2 (human)): 99.9% | residual activity (CAMK2A (human)): 98.2% | residual activity (CAMK2G (human)): 97.3% | residual activity (CAMK4 (human)): 94.4% | residual activity (CDC42BPB (human)): 84.9% | residual activity (CSNK1G2 (human)): 97.1% | residual activity (DYRK3 (human)): 96.3% | residual activity (EPHA2 (human)): 85.2% | residual activity (EPHA3 (human)): 97.9% | residual activity (EPHA8 (human)): 81.5% | residual activity (FGFR1 (human)): 84.9% | residual activity (FYN (human)): 85.7% | residual activity (HCK (human)): 61.8% | residual activity (IKBKE (human)): 101% | residual activity (INSR (human)): 77.6% | residual activity (MAP4K5 (human)): 59.5% | residual activity (MAPK9 (human)): 92.2% | residual activity (MATK (human)): 103% | residual activity (MET (human)): 75.5% | residual activity (MST4 (human)): 108% | residual activity (MUSK (human)): 88.3% | residual activity (NEK1 (human)): 93.1% | residual activity (NEK6 (human)): 105% | residual activity (NEK7 (human)): 99% | residual activity (NTRK3 (human)): 86.3% | residual activity (NUAK2 (human)): 142% | residual activity (OXSR1 (human)): 92% | residual activity (PAK2 (human)): 90.7% | residual activity (PIM1 (human)): 91.5% | residual activity (PRKCB1 (human)): 103% | residual activity (PRKG2 (human)): 92.2% | residual activity (PRKX (human)): 92.5% | residual activity (PTK2 (human)): 95.1% | residual activity (PTK6 (human)): 39% | residual activity (RIPK2 (human)): 45.4% | residual activity (RPS6KA6 KD1 KD2 (human)): 90.5% | residual activity (SLK (human)): 64.6% | residual activity (SRPK3 (human)): 90.1% | residual activity (STK24 (human)): 96.8% | residual activity (TGFBR2 (human)): 94.5% | residual activity (TTK (human)): 108%

c1ccc(-c2n[nH]cc2-c2ccnc3ccccc23)nc1
residual activity (ADRBK2 (human)): 103% | residual activity (CAMK2A (human)): 102% | residual activity (CAMK2G (human)): 85.9% | residual activity (CAMK4 (human)): 97.5% | residual activity (CDC42BPB (human)): 102% | residual activity (CSNK1G2 (human)): 103% | residual activity (DYRK3 (human)): 104% | residual activity (EPHA2 (human)): 103% | residual activity (EPHA3 (human)): 99.3% | residual activity (EPHA8 (human)): 94.6% | residual activity (FGFR1 (human)): 94.2% | residual activity (FYN (human)): 110% | residual activity (HCK (human)): 98.5% | residual activity (IKBKE (human)): 101% | residual activity (INSR (human)): 86.7% | residual activity (MAP4K5 (human)): 87.4% | residual activity (MAPK9 (human)): 98.9% | residual activity (MARK1 (human)): 79.2% | residual activity (MATK (human)): 87.9% | residual activity (MET (human)): 94.1% | residual activity (MST4 (human)): 83.4% | residual activity (MUSK (human)): 93.4% | residual activity (NEK6 (human)): 106% | residual activity (NEK7 (human)): 102% | residual activity (NTRK3 (human)): 92.7% | residual activity (NUAK2 (human)): 135% | residual activity (OXSR1 (human)): 85.3% | residual activity (PAK2 (human)): 57% | residual activity (PIM1 (human)): 107% | residual activity (PRKCB1 (human)): 102% | residual activity (PRKG2 (human)): 89.2% | residual activity (PRKX (human)): 102% | residual activity (PTK2 (human)): 99.3% | residual activity (PTK6 (human)): 70.9% | residual activity (RIPK2 (human)): 64.7% | residual activity (RPS6KA6 KD1 KD2 (human)): 112% | residual activity (SLK (human)): 104% | residual activity (SRPK3 (human)): 88.9% | residual activity (STK24 (human)): 96.8% | residual activity (TGFBR2 (human)): 109% | residual activity (TTK (human)): 97.4%

Cc1[nH]c(/C=C2\C(=O)Nc3ccc(S(=O)(=O)N(C)c4cccc(Cl)c4)cc32)c(C)c1C(=O)N1CCN(C)CC1
residual activity (ADRBK2 (human)): 103% | residual activity (CAMK2A (human)): 73.8% | residual activity (CAMK2G (human)): 119% | residual activity (CAMK4 (human)): 96.2% | residual activity (CDC42BPB (human)): 113% | residual activity (CSNK1G2 (human)): 99.7% | residual activity (EPHA2 (human)): 97.8% | residual activity (EPHA3 (human)): 103% | residual activity (EPHA8 (human)): 91.7% | residual activity (FGFR1 (human)): 80% | residual activity (FYN (human)): 67.1% | residual activity (HCK (human)): 63.5% | residual activity (IKBKE (human)): 74.2% | residual activity (INSR (human)): 98.8% | residual activity (MAP4K5 (human)): 5.06% | residual activity (MAPK9 (human)): 78% | residual activity (MARK1 (human)): 62.5% | residual activity (MATK (human)): 100% | residual activity (MET (human)): 1.18% | residual activity (MST4 (human)): 63.5% | residual activity (MUSK (human)): 84.2% | residual activity (NEK1 (human)): 23.5% | residual activity (NEK6 (human)): 104% | residual activity (NEK7 (human)): 90.3% | residual activity (NTRK3 (human)): 5.93% | residual activity (NUAK2 (human)): 61.9% | residual activity (OXSR1 (human)): 116% | residual activity (PAK2 (human)): 96.2% | residual activity (PIM1 (human)): 103% | residual activity (PRKCB1 (human)): 94% | residual activity (PRKG2 (human)): 104% | residual activity (PRKX (human)): 104% | residual activity (PTK2 (human)): 96.8% | residual activity (PTK6 (human)): 91.3% | residual activity (RIPK2 (human)): 92.7% | residual activity (RPS6KA6 KD1 KD2 (human)): 67.8% | residual activity (SLK (human)): 13.6% | residual activity (SRPK3 (human)): 84.8% | residual activity (STK24 (human)): 49.6% | residual activity (TGFBR2 (human)): 127% | residual activity (TTK (human)): 90.7%

Reference: the kinase profiling compilation of Christmann-Franck et al. (2016)
